In article PMC8217170, “Phase Ib dose-escalation study of the hypoxia-modifier Myo-inositol trispyrophosphate in patients with hepatopancreatobiliary tumors” (Nature Communications, 2021):
Values joined by “and” are separate entries in the source; they are usually repeats but may differ in a detail not shown here. Identical values can stand only once.

Assay: Plasma levels and pharmacokinetics of intravenous ITPP
[1] = individual patients, cohort 1 (1866 mg/m2)
[2] = individual patients, cohort 2 (3732 mg/m2)

O=P1(O)OC2C3OP(=O)(O)OP(=O)(O)OC3C3OP(=O)(O)OP(=O)(O)OC3C2OP(=O)(O)O1 (centres unmarked) [ITPP, Myo-inositol trispyrophosphate]
ITPP plasma levels: Concentration (cohort 2, patient 7, day 2, hour 0, sample 8_2_1): 0 µg/mL
ITPP plasma levels, Concentration (cohort 2, patient 7, day 2, hour 9): 98.6 µg/mL
ITPP plasma levels, Concentration (cohort 2, patient 7, day 3, hour 0): 0 µg/mL
ITPP plasma levels, Concentration (cohort 2, patient 7, day 3, hour 9): 93.7 µg/mL
AUC (cohort 3, 5600 mg/m2): 1168.7 µg·h/mL
AUMC (cohort 3, 5600 mg/m2): 6445.9 h2*mg/L
CL (cohort 3, 5600 mg/m2): 4.4 L/h
Clast (cohort 3, 5600 mg/m2): 59.5 µg/mL
Cmax (cohort 3, 5600 mg/m2): 153.4 µg/mL
Cmin (cohort 3, 5600 mg/m2): 0 ng/mL
Elimination rate λz (cohort 3, 5600 mg/m2): 0.5 h⁻¹
Half life/T0.5 (cohort 3, 5600 mg/m2): 1.4 h
MRT (cohort 3, 5600 mg/m2): 1.5 h
Tlast (cohort 3, 5600 mg/m2): 10.0 h
Tmax (cohort 3, 5600 mg/m2): 6.0 h
VSS (cohort 3, 5600 mg/m2): 9.2 L
AUC (cohort 4, 7000 mg/m2): 1649.5 µg·h/mL
AUMC (cohort 4, 7000 mg/m2): 9421.8 h2*mg/L
CL (cohort 4, 7000 mg/m2): 3.1 L/h
Clast (cohort 4, 7000 mg/m2): 127.5 µg/mL
Cmax (cohort 4, 7000 mg/m2): 228.0 µg/mL
Cmin (cohort 4, 7000 mg/m2): 0 ng/mL
Elimination rate λz (cohort 4, 7000 mg/m2): 0.2 h⁻¹
Half life/T0.5 (cohort 4, 7000 mg/m2): 3.3 h
MRT (cohort 4, 7000 mg/m2): 1.7 h
Tlast (cohort 4, 7000 mg/m2): 10.0 h
Tmax (cohort 4, 7000 mg/m2): 6.0 h
VSS (cohort 4, 7000 mg/m2): 12.8 L
AUC (cohort 5, 8750 mg/m2): 1850.5 µg·h/mL
AUMC (cohort 5, 8750 mg/m2): 10396.4 h2*mg/L
CL (cohort 5, 8750 mg/m2): 4.0 L/h
Clast (cohort 5, 8750 mg/m2): 116.8 µg/mL
Cmax (cohort 5, 8750 mg/m2): 257.8 µg/mL
Cmin (cohort 5, 8750 mg/m2): 0 ng/mL
Elimination rate λz (cohort 5, 8750 mg/m2): 0.3 h⁻¹
Half life/T0.5 (cohort 5, 8750 mg/m2): 2.1 h
MRT (cohort 5, 8750 mg/m2): 1.6 h
Tlast (cohort 5, 8750 mg/m2): 10.0 h
Tmax (cohort 5, 8750 mg/m2): 6.0 h
VSS (cohort 5, 8750 mg/m2): 11.1 L
AUC (cohort 6, 10500 mg/m2): 2439.2 µg·h/mL
AUMC (cohort 6, 10500 mg/m2): 13886.7 h2*mg/L
CL (cohort 6, 10500 mg/m2): 3.3 L/h
Clast (cohort 6, 10500 mg/m2): 186.4 µg/mL
Cmax (cohort 6, 10500 mg/m2): 313.4 µg/mL
Cmin (cohort 6, 10500 mg/m2): 0 ng/mL
Elimination rate λz (cohort 6, 10500 mg/m2): 0.3 h⁻¹
Half life/T0.5 (cohort 6, 10500 mg/m2): 2.6 h
MRT (cohort 6, 10500 mg/m2): 1.7 h
Tlast (cohort 6, 10500 mg/m2): 10.0 h
Tmax (cohort 6, 10500 mg/m2): 6.0 h
VSS (cohort 6, 10500 mg/m2): 11.7 L
AUC (cohort 7, 12390 mg/m2): 2457.2 µg·h/mL
AUMC (cohort 7, 12390 mg/m2): 14095.2 h2*mg/L
CL (cohort 7, 12390 mg/m2): 4.4 L/h
Clast (cohort 7, 12390 mg/m2): 149.4 µg/mL
Cmax (cohort 7, 12390 mg/m2): 353.6 µg/mL
Cmin (cohort 7, 12390 mg/m2): 0 ng/mL
Elimination rate λz (cohort 7, 12390 mg/m2): 0.4 h⁻¹
Half life/T0.5 (cohort 7, 12390 mg/m2): 1.7 h
MRT (cohort 7, 12390 mg/m2): 1.7 h
Tlast (cohort 7, 12390 mg/m2): 10.0 h
Tmax (cohort 7, 12390 mg/m2): 6.0 h
VSS (cohort 7, 12390 mg/m2): 11.4 L
AUC (cohort 8, 14500 mg/m2): 2864.1 µg·h/mL
AUMC (cohort 8, 14500 mg/m2): 16280.4 h2*mg/L
CL (cohort 8, 14500 mg/m2): 4.4 L/h
Clast (cohort 8, 14500 mg/m2): 166.0 µg/mL
Cmax (cohort 8, 14500 mg/m2): 439.2 µg/mL
Cmin (cohort 8, 14500 mg/m2): 0 ng/mL
Elimination rate λz (cohort 8, 14500 mg/m2): 0.4 h⁻¹
Half life/T0.5 (cohort 8, 14500 mg/m2): 1.8 h
MRT (cohort 8, 14500 mg/m2): 1.7 h
Tlast (cohort 8, 14500 mg/m2): 10.0 h
Tmax (cohort 8, 14500 mg/m2): 6.0 h
VSS (cohort 8, 14500 mg/m2): 11.4 L
AUCTmax [1]: 338.2 µg·h/mL and 372.1 µg·h/mL and 311.3 µg·h/mL and 349.1 µg·h/mL
AUC∞ [1]: 366.8 µg·h/mL
AUC∞ / Dose [1]: 0.2 mg·h/L/mg
AUMCTmax [1]: 1863.8 h2*mg/L and 2050.4 h2*mg/L and 1825.7 h2*mg/L and 1904.2 h2*mg/L
AUMC∞ [1]: 2201.9 h2*mg/L
CLO [1]: 5.1 L/h
Clast [1]: 15.7 µg/mL and 46.6 µg/mL and 22.8 µg/mL and 33.9 µg/mL
Cmax [1]: 45.8 µg/mL and 54.7 µg/mL and 55.3 µg/mL and 42.2 µg/mL
Cmax / Dose [1]: 0.0 mg/L/mg
Cmin [1]: 0 ng/mL
Elimination rate λz [1]: 0.5 h⁻¹
Half-life / T0.5 [1]: 1.3 h
MRTTmax [1]: 1.5 h (3×) and 1.9 h
MRT∞ [1]: 2.0 h
Tlast [1]: 10 h (3×) and 9 h
Tmax [1]: 6.0 h (3×) and 8.5 h
VSSO [1]: 10.2 L
VZO [1]: 9.3 L
AUCTmax [2]: 745.9 µg·h/mL and 761.5 µg·h/mL and 1032.3 µg·h/mL
AUC∞ [2]: 826.4 µg·h/mL and 896.6 µg·h/mL and 1215.3 µg·h/mL
AUC∞ / Dose [2]: 0.2 h*mg/L/mg (2×) and 0.3 h*mg/L/mg
AUMCTmax [2]: 4278.4 h2*mg/L and 4442.2 h2*mg/L and 6030.7 h2*mg/L
AUMC∞ [2]: 5242.1 h2*mg/L and 6142.5 h2*mg/L and 8341.9 h2*mg/L
CLO [2]: 4.5 L/h and 4.2 L/h and 3.1 L/h
Clast [2]: 40.6 µg/mL and 52.1 µg/mL and 69.7 µg/mL
Cmax [2]: 106.3 µg/mL and 106.7 µg/mL and 148.7 µg/mL
Cmax / Dose [2]: 0.0 mg/L/mg
Cmin [2]: 0 ng/mL
Elimination rate λz [2]: 0.5 /h and 0.4 /h (2×)
Half-life / T0.5 [2]: 1.4 h and 1.8 h (2×)
MRTTmax [2]: 1.7 h and 1.8 h (2×)
MRT∞ [2]: 2.3 h and 2.9 h (2×)
Tlast [2]: 10 h
Tmax [2]: 6.0 h
